These results are taken from patent EP4545091A1 (priority 2023, dated 2025).

Bridges are numbered along the chain shown (N, C = ends).

For one experiment, the system named is Omicron XBB.1.5 spike. It counts as cell-based, SARS-CoV-2.
Experiment [1] has as its system SARS-CoV-2 Omicron BA.1 variant. Particulars: 48 h.

As a reminder, the IC50 is the concentration needed to halve the response being measured. Low readings indicate greater potency in that assay, high ones weaker potency in that assay. For “VAACNLPIVRGPCRAFIQLWAFDAVKGKCVLFPYGGCQGNGNKFYSEKECREYCGVPGDGD (disulfide 4-54, 13-37, 29-50) [Trypstatin]”, the “activity against Omicron XBB.1.5 variant in a pseudoparticle assay” value in the experiment on Omicron XBB.1.5 spike is “verified activity”. In experiment [1], this sequence yielded an IC50 of 0.12 µM.
